# Legend:
# human MLKL (full length) = human MLKL (full length) (Homo sapiens (Human), UniProt Q8NB16); test: KINOMEscan binding assay, human MLKL (full length); details: equilibrium dissociation constant
# Summary of the method: (§1)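 KINOMEscan competition binding using kinase-tagged T7 phage or HEK-293-produced DNA-tagged protein captured on ligand beads, with eluted protein quantified by qPCR. Compounds were run as an 11-point 3-fold series, top 30,000 nM, in 1% DMSO. Kd was fitted with the Hill equation, slope fixed at −1.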
# human RIPK1 = human RIPK1 (Homo sapiens (Human), UniProt Q13546); test: KINOMEscan binding assay, human RIPK1; details: equilibrium dissociation constant
# human RIPK1, sequence (Q13546 whole entry): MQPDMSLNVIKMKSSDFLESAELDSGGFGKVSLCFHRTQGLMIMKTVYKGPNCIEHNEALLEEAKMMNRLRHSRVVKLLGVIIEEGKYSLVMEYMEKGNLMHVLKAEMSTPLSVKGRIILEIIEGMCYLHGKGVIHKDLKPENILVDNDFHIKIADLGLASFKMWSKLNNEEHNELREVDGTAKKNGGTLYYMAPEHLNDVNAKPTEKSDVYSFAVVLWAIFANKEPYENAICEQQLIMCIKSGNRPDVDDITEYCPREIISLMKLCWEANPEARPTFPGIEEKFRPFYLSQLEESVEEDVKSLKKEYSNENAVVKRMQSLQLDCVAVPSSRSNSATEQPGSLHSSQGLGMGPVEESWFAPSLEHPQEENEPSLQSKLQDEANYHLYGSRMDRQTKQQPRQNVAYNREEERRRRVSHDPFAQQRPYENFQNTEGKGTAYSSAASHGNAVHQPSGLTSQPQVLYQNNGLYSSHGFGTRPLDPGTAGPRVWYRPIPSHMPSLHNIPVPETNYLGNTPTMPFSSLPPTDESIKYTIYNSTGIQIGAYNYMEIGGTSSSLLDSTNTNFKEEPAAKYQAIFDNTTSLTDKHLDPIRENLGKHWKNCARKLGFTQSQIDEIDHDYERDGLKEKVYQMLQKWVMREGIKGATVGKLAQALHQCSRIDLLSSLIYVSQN
# Summary of the method: as §1
# human RIPK3 = human RIPK3 (Homo sapiens (Human), UniProt Q9Y572); test: KINOMEscan binding assay, human RIPK3; details: equilibrium dissociation constant
# human RIPK3, sequence (Q9Y572 whole entry): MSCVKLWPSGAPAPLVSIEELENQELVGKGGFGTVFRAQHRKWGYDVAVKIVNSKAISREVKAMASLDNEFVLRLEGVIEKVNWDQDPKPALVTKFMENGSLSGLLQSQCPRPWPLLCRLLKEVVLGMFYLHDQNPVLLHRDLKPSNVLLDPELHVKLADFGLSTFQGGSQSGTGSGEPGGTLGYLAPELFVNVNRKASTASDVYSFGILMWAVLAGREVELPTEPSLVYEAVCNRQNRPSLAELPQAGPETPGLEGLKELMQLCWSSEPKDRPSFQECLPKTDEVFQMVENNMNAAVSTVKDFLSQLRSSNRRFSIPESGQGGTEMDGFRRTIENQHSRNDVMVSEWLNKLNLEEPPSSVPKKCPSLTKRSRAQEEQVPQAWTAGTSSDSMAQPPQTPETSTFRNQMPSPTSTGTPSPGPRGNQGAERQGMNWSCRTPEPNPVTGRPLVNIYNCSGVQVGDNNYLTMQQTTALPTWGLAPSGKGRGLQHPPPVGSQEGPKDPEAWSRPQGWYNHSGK
# Summary of the method: as §1
# [1] = test system: U937 human histiocytic leukemia cell line; test: Inhibition of TSQ induced necroptosis in U937 cells (CellTitre-Glo); details: Homo sapiens, U-937, TSQ cocktail (TNF, Smac mimetic, Q-VD-OPh), 48 hours, read-out: Inhibition of TSQ-induced necroptosis (IC50 cell-based assay)
# Description: Cellular Assay: Screening Compounds for Inhibition of TSQ Induced Necroptosis, 384 Well Plate Format.
# (§2) • Cell Line ID: U937 human histiocytic leukemia cell line. • Cell Concentration (cells/well): Final cell density is 20000 cells per well. • Cell growth medium: HT-RPMI medium+7.4% Fetal Bovine Serum (FBS). Cells are cultured in Corning 150 cm^2 tissue culture flasks with vented caps at 37° C./5% CO2. • Incubation: Plates were incubated at 37° C./5% CO2 in a humidified incubator for 48 hours following addition of compounds and death stimuli (TSQ cocktail). • Compound concentration: 36 μM starting concentration, 1:3 dilution, 10 point • DMSO final concentration (% v/v): 0.3%. Compounds in TSQ Cocktail (T: TNF; S: Smac Mimetic; Q: Q-VD-OPh) and their Final Concentrations: • hTNF-Fc (100 ng/ml)—produced by standard procedures as shown in Bossen et al., J. Biol. Chem., 2006, 281(20), 13964-13971. • Compound A (500 nM) —Smac mimetic, Tetralogic and SYNthesis med chem • Q-VD-OPh (10 μM) —MP Biomedicals
# (§3) The cellular assay was carried out according to the following steps: • 1. Each well was prepared by sequential addition of: • a. DMSO (control; columns 1-2 and 23-24) or compound in DMSO—addition was performed using acoustic transfer of nL volumes of stock compound to give final test concentrations of 36, 12, 4, 1.3, 0.44, 0.148, 0.049, 0.016, 0.005 and 0.002 μM. All wells were backfilled with DMSO to a final total volume in the well of 100 nL. • b. Following compound/DMSO addition in step (a), 40 μL of cell suspension (5×10^5 cells/mL) was added to provide a final cell concentration of 20,000 cells per well, and • c. Following cell addition in step (b), 10 μL of 5×TSQ cocktail (except to positive controls; columns 1 and 23) was added to each well. • 2. After 48 hours, plate was removed from the 37° C. incubator and equilibrated to room temperature for 45 minutes. • 3. 15 μL of room temperature CellTitre-Glo2™ (Promega™) was added to each well. • 4. Shook plates for 2 minutes (˜600 rpm) and incubated at room temperature for 15 minutes to allow signal to stabilise. • 5. Read luminescence readout on a plate reader.
# Percent viability was calculated for each compound according to equation (2): […]
# (§4) 10 point titration curves were fitted with the 4 parameter logistic nonlinear regression model and the IC50 reported reflect the inflection point of the curve for curve fitting.
# (§5) • Assay involving the TSQ cocktail (T: TNF; S: Smac mimetic; Q: Q-VD-OPh): TSQ treatment ensures that cells specifically undergo necroptotic cell death. TNF activates the TNF receptor, Smac mimetic directs the signal away from proinflammatory signaling and toward the RIPK1/RIPK3-mediated cell death pathways, and Q-VD-OPh ensures that the apoptotic response is blocked leaving only the programmed necrosis response. The compounds' activity (solution in DMSO) tested in this TSQ-induced assay was evaluated by determining the number of viable cells in culture by measuring the amount of ATP present as measured by CelltiterGlo. • Counter screen: In parallel, all compounds were tested for their ability to affect cell viability. The same U937 cells were treated with compound in DMSO without the TSQ cocktail. This counter screen enabled evaluation of off-target effects. In this case, cell viability was measured by CelltiterGlo.
# U937 cells = test: Counter screen: U937 cell viability without TSQ cocktail (off-target effect); set-up: species or system human; details: Homo sapiens, U-937, compound without TSQ cocktail, read-out: Off-target effect (IC50 cell-based assay)
# Description: as §2, §3, §4, §5
# human MLKL (full length), sequence (Q8NB16 whole entry): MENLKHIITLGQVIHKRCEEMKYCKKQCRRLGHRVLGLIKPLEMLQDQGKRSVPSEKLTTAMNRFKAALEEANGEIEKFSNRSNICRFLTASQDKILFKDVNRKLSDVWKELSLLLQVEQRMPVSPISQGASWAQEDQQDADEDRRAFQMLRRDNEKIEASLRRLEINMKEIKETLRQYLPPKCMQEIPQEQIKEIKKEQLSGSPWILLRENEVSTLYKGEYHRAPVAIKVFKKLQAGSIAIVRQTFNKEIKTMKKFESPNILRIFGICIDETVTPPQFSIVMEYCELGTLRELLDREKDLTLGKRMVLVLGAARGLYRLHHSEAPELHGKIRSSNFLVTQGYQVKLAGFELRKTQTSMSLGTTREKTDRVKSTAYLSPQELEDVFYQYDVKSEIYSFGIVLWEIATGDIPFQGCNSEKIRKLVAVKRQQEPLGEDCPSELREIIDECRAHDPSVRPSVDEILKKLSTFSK
Kd (human MLKL (full length)) [µM],Kd (human RIPK1) [µM],Kd (human RIPK3) [µM],SMILES,IC50 [1] [µM],IC50 (U937 cells) [µM]
0.001 to 0.1,> 10,> 10,"C[C@H](Oc1cc(-c2nn(C)c3c(-c4cnn(C(F)(F)F)c4)cnc(N)c23)ccc1NS(=O)(=O)C(F)F)c1ccc(F)cc1 [Compound 134, (S)-N-(4-(4-amino-1-methyl-7-(1-(trifluoromethyl)-1H-pyrazol-4-yl)-1H-pyrazolo[4,3-c]pyridin-3-yl)-2-(1-(4-fluorophenyl)ethoxy)phenyl)-1,1-difluoromethanesulfonamide]",0.01 to 1,> 10
0.001 to 0.1,> 10,> 10,"C[C@H](Oc1cc(-c2nn(C)c3c(-c4ccnc(C(F)F)c4)cnc(N)c23)ccc1NS(=O)(=O)C(F)F)c1ccc(F)cc1 [Compound 57, (S)-N-(4-(4-amino-7-(2-(difluoromethyl)pyridin-4-yl)-1-methyl-1H-pyrazolo[4,3-c]pyridin-3-yl)-2-(1-(4-fluorophenyl)ethoxy)phenyl)-1,1-difluoromethanesulfonamide]",0.01 to 1,> 10
< 0.001,> 10,> 10,"C[C@H](Oc1cc(-c2nn(C)c3c(C#N)cnc(N)c23)ccc1NS(=O)(=O)C(F)F)c1ccc(F)cc1 [Compound 133, N-(4-{4-amino-7-cyano-1-methyl-1H-pyrazolo[4,3-c]pyridin-3-yl}-2-[(1S)-1-(4-fluorophenyl)ethoxy]phenyl)-1,1-difluoromethanesulfonamide]",0.01 to 1,> 10
< 0.001,> 10,> 10,"Cc1ccc(-c2cnc(N)c3c(-c4ccc(NS(=O)(=O)C(F)F)c(O[C@@H](C)c5ccc(F)cc5)c4)nn(C)c23)cn1 [Compound 26, (S)-N-(4-(4-amino-1-methyl-7-(6-methylpyridin-3-yl)-1H-pyrazolo[4,3-c]pyridin-3-yl)-2-(1-(4-fluorophenyl)ethoxy)phenyl)-1,1-difluoromethanesulfonamide]",0.01 to 1,> 10
< 0.001,> 10,> 10,"C[C@H](Oc1cc(-c2nn(C)c3c(-c4cnn(CCN5CC(C)(C)C5)c4)cnc(N)c23)ccc1NS(=O)(=O)C(F)F)c1ccc(F)cc1 [Compound 75, (S)-N-(4-(4-amino-7-(1-(2-(3,3-dimethylazetidin-1-yl)ethyl)-1H-pyrazol-4-yl)-1-methyl-1H-pyrazolo[4,3-c]pyridin-3-yl)-2-(1-(4-fluorophenyl)ethoxy)phenyl)-1,1-difluoromethanesulfonamide]",< 0.01,> 10
0.001 to 0.1,> 10,> 10,"C[C@H](Oc1cc(-c2nn(C)c3c(-c4ccccc4Cl)cnc(N)c23)ccc1NS(=O)(=O)C(F)F)c1ccc(F)cc1 [Compound 85, (S)-N-(4-(4-amino-7-(2-chlorophenyl)-1-methyl-1H-pyrazolo[4,3-c]pyridin-3-yl)-2-(1-(4-fluorophenyl)ethoxy)phenyl)-1,1-difluoromethanesulfonamide]",1 to 10,> 10
0.001 to 0.1,> 10,> 10,"C[C@H](Oc1cc(-c2nn(C)c3c(-c4ccccc4)cnc(N)c23)ccc1NS(=O)(=O)C(F)F)c1ccc(F)cc1 [Compound 86, (S)-N-(4-(4-amino-1-methyl-7-phenyl-1H-pyrazolo[4,3-c]pyridin-3-yl)-2-(1-(4-fluorophenyl)ethoxy)phenyl)-1,1-difluoromethanesulfonamide]",0.01 to 1,> 10
< 0.001,> 10,> 10,"CNCCn1cc(-c2cnc(N)c3c(-c4ccc(NS(=O)(=O)C(F)F)c(O[C@@H](C)c5ccc(F)cc5)c4)nn(C)c23)cn1 [Compound 82, (S)-N-(4-(4-amino-1-methyl-7-(1-(2-(methylamino)ethyl)-1H-pyrazol-4-yl)-1H-pyrazolo[4,3-c]pyridin-3-yl)-2-(1-(4-fluorophenyl)ethoxy)phenyl)-1,1-difluoromethanesulfonamide]",0.01 to 1,> 10
< 0.001,> 10,> 10,"C[C@H](Oc1cc(-c2cnn3c(-c4cnn(CCO)c4)cnc(N)c23)ccc1NS(=O)(=O)C(F)F)c1ccc(F)cc1 [Compound 37, (S)-N-(4-(4-amino-7-(1-(2-hydroxyethyl)-1H-pyrazol-4-yl)pyrazolo[1,5-a]pyrazin-3-yl)-2-(1-(4-fluorophenyl)ethoxy)phenyl)-1,1-difluoromethanesulfonamide]",0.01 to 1,> 10
< 0.001,> 10,> 10,"C[C@H](Oc1cc(-c2nn(C)c3c(C#CC4CCOCC4)cnc(N)c23)ccc1NS(=O)(=O)C(F)F)c1ccc(F)cc1 [Compound 58, (S)-N-(4-(4-amino-1-methyl-7-((tetrahydro-2H-pyran-4-yl)ethynyl)-1H-pyrazolo[4,3-c]pyridin-3-yl)-2-(1-(4-fluorophenyl)ethoxy)phenyl)-1,1-difluoromethanesulfonamide]",0.01 to 1,> 10
< 0.001,> 10,> 10,"Cn1cc(-c2cnc(N)c3c(-c4ccc(NS(=O)(=O)C(F)F)c(OCc5ccc(F)cc5)c4)nn(C)c23)cn1 [Compound 16, N-(4-(4-amino-1-methyl-7-(1-methyl-1H-pyrazol-4-yl)-1H-pyrazolo[4,3-c]pyridin-3-yl)-2-((4-fluorobenzyl)oxy)phenyl)-1,1-difluoromethanesulfonamide]",1 to 10,> 10
< 0.001,> 10,> 10,"COCC(Oc1cc(-c2nn(C)c3c(-c4cnn(C5CCOCC5)c4)cnc(N)c23)ccc1NS(=O)(=O)C(F)F)c1ccc(F)cc1 (racemic) [Compound 102, N-(4-(4-amino-1-methyl-7-(1-(tetrahydro-2H-pyran-4-yl)-1H-pyrazol-4-yl)-1H-pyrazolo[4,3-c]pyridin-3-yl)-2-(1-(4-fluorophenyl)-2-methoxyethoxy)phenyl)-1,1-difluoromethanesulfonamide]",0.01 to 1,> 10
0.001 to 0.1,> 10,> 10,"C[C@H](Oc1cc(-c2nn(C)c3c(-c4cnn(C5CCOCC5)c4)cnc(N)c23)ccc1NS(C)(=O)=O)c1ccc(F)cc1 [Compound 119, (S)-N-(4-(4-amino-1-methyl-7-(1-(tetrahydro-2H-pyran-4-yl)-1H-pyrazol-4-yl)-1H-pyrazolo[4,3-c]pyridin-3-yl)-2-(1-(4-fluorophenyl)ethoxy)phenyl)methanesulfonamide]",0.01 to 1,> 10

SMILES,Kd (human MLKL (full length)) [µM],Kd (human RIPK1) [µM],Kd (human RIPK3) [µM],IC50 [1] [µM],IC50 (U937 cells) [µM]
"C[C@H](Oc1cc(-c2nn(C)c3c(-c4cnn(C5CC6CCC(C5)N6C)c4)cnc(N)c23)ccc1NS(=O)(=O)C(F)F)c1ccc(F)cc1 (stereo partly drawn) [Compound 73, N-(4-(4-amino-1-methyl-7-(1-(8-methyl-8-azabicyclo[3.2.1]octan-3-yl)-1H-pyrazol-4-yl)-1H-pyrazolo[4,3-c]pyridin-3-yl)-2-((S)-1-(4-fluorophenyl)ethoxy)phenyl)-1,1-difluoromethanesulfonamide]",< 0.001,> 10,> 10,0.01 to 1,> 10
